The source made the active and inactive calls. The calls are words filed in the database; no cut-off is given here.
How the values were obtained:
[1] = molecular target: Mitogen-activated protein kinase kinase kinase 12 (Homo sapiens) (UniProt Q12852)
[2] = molecular target: Cyclin-dependent kinase 4 (Homo sapiens) (UniProt P11802)
[3] = molecular target: Ephrin type-A receptor 7 (Homo sapiens) (UniProt Q15375)
[4] = tested on: Phosphatidylinositol 4,5-bisphosphate 3-kinase catalytic subunit alpha isoform (Homo sapiens), P42336 [E545K]
[5] = molecular target: Mitogen-activated protein kinase kinase kinase 19 (Homo sapiens) (UniProt Q56UN5)
[6] = molecular target: Serine/threonine-protein kinase 35 (Homo sapiens) (UniProt Q8TDR2)
[7] = molecular target: Platelet-derived growth factor receptor beta (Homo sapiens, UniProt P09619)
[8] = molecular target: Cyclin-dependent kinase 9 (Homo sapiens) (UniProt P50750)
[9] = molecular target: Tyrosine-protein kinase CSK (Homo sapiens) (UniProt P41240)
[10] = molecular target: Fibroblast growth factor receptor 3 (Homo sapiens, UniProt P22607)
[11] = molecular target: Serine/threonine-protein kinase PLK4 (Homo sapiens) (UniProt O00444)
[12] = tested on: Tyrosine-protein kinase ABL1 (Homo sapiens), P00519 [T315I]
[13] = molecular target: Rho-associated protein kinase 2 (Homo sapiens) (UniProt O75116)
[14] = molecular target: Phosphatidylinositol 3-kinase C2 domain-containing subunit gamma (Homo sapiens) (UniProt O75747)
[15] = molecular target: Ephrin type-B receptor 4 (Homo sapiens) (UniProt P54760)
[16] = molecular target: Delta-type opioid receptor (Homo sapiens, UniProt P41143); conditions: Compound concentration 10.0 uM
[17] = tested on: Proto-oncogene tyrosine-protein kinase receptor Ret (Homo sapiens), P07949 [V804L]
[18] = molecular target: Focal adhesion kinase 1 (Homo sapiens) (UniProt Q05397)
[19] = molecular target: Receptor-interacting serine/threonine-protein kinase 2 (Homo sapiens) (UniProt O43353)
[20] = molecular target: Platelet-derived growth factor receptor alpha (Homo sapiens) (UniProt P16234)
[21] = molecular target: 3-phosphoinositide-dependent protein kinase 1 (Homo sapiens) (UniProt O15530)
[22] = molecular target: Fibroblast growth factor receptor 2 (Homo sapiens) (UniProt P21802)
Angiopoietin-1 receptor = Angiopoietin-1 receptor (Homo sapiens, UniProt Q02763); assay: NanoBRET assay (SGC Frankfurt) with TEK
[23] = molecular target: Serine/threonine-protein kinase TNNI3K (Homo sapiens) (UniProt Q59H18)
[24] = molecular target: Non-receptor tyrosine-protein kinase TYK2 (Homo sapiens) (UniProt P29597)
[25] = molecular target: Beta-1 adrenergic receptor (Homo sapiens) (UniProt P08588); conditions: Compound concentration 10.0 uM
[26] = molecular target: ALK tyrosine kinase receptor (Homo sapiens) (UniProt Q9UM73)
Rattus norvegicus = species on record: Rattus norvegicus; conditions: Compound concentration 10.0 uM
[27] = molecular target: Atypical kinase COQ8A, mitochondrial (Homo sapiens) (UniProt Q8NI60)
[28] = molecular target: T1, Discoidin domain-containing receptor 2 (Homo sapiens, UniProt Q16832); assay: NanoBRET assay (SGC Frankfurt) with DDR2
T1 sequence (Q16832 whole entry): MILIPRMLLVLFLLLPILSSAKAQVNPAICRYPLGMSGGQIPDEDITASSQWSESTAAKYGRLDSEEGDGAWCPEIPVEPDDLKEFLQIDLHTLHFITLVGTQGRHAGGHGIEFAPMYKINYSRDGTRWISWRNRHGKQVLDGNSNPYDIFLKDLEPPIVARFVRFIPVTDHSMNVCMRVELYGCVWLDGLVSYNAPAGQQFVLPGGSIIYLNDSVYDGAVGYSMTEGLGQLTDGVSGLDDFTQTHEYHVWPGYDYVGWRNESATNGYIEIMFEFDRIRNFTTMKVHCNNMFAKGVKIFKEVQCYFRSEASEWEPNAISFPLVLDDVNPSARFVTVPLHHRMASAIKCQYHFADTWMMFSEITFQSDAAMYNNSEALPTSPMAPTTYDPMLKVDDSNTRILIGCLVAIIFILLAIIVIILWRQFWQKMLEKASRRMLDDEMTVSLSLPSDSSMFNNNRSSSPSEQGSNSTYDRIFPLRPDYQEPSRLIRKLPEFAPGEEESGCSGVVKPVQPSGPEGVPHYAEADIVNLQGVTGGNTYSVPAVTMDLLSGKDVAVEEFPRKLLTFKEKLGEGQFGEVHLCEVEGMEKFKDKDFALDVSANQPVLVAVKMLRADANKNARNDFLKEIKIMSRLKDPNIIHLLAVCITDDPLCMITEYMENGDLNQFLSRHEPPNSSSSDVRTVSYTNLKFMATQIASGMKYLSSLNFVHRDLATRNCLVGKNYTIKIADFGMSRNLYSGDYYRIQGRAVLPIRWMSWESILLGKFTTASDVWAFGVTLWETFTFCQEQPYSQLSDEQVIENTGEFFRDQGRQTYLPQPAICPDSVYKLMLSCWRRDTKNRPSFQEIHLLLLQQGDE

[29] = molecular target: Receptor-type tyrosine-protein kinase FLT3 (Homo sapiens) (UniProt P36888)
[30] = molecular target: G protein-coupled receptor kinase 3 (Homo sapiens) (UniProt P35626)
[31] = tested on: Mast/stem cell growth factor receptor Kit (Homo sapiens), P10721 [V559D]
[32] = molecular target: Cyclin-dependent kinase 3 (Homo sapiens) (UniProt Q00526)
[33] = Compound concentration 100.0 nM
[34] = Compound concentration 1000.0 nM

Sequence of Angiopoietin-1 receptor (Q02763 whole entry): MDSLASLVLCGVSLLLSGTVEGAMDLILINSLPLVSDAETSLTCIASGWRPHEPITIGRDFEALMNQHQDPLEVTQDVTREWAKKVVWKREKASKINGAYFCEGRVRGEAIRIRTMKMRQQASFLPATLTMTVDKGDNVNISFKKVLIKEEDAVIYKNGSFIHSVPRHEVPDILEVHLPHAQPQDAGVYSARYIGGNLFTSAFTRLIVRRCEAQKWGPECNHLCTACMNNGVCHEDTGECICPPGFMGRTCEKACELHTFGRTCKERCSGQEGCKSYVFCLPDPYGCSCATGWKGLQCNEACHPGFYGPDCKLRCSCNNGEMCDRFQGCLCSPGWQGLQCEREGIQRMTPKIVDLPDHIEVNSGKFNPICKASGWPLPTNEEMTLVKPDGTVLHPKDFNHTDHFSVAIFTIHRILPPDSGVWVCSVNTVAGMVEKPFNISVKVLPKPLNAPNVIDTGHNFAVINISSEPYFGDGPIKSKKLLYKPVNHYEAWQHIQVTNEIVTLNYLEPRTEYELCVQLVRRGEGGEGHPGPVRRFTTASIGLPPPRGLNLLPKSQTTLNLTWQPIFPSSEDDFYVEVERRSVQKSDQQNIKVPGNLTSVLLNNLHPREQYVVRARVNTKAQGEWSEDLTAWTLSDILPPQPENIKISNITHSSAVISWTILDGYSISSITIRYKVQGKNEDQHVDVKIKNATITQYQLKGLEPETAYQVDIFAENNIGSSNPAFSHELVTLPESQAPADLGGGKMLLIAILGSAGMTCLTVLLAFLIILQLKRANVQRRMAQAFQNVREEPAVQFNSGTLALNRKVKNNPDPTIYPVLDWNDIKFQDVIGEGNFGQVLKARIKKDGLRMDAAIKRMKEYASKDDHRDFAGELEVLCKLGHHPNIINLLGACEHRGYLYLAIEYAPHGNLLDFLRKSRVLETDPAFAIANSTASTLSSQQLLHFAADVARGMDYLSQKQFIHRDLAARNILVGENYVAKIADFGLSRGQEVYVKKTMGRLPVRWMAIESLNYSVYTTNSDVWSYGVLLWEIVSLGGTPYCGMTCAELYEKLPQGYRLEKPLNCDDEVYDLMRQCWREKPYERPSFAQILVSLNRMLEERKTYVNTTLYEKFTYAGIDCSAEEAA
Sequence of Receptor-interacting serine/threonine-protein kinase 2 (Homo sapiens) (O43353 whole entry): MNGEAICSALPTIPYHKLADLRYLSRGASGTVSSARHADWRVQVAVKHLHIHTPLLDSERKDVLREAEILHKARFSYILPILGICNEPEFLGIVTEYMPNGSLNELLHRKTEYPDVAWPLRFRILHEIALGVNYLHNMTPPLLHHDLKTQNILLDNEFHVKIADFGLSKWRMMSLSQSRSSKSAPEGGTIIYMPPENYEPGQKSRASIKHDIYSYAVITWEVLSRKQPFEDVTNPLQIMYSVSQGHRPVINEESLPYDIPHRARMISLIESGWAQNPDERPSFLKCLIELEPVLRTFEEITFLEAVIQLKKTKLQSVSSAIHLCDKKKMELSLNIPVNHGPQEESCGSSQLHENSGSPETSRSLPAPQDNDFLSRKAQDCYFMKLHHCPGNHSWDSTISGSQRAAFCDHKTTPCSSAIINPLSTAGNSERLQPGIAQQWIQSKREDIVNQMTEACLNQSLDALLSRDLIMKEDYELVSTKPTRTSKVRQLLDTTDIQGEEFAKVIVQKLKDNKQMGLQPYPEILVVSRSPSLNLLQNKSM
Sequence of Focal adhesion kinase 1 (Homo sapiens) (Q05397 2-1052 limits assumed): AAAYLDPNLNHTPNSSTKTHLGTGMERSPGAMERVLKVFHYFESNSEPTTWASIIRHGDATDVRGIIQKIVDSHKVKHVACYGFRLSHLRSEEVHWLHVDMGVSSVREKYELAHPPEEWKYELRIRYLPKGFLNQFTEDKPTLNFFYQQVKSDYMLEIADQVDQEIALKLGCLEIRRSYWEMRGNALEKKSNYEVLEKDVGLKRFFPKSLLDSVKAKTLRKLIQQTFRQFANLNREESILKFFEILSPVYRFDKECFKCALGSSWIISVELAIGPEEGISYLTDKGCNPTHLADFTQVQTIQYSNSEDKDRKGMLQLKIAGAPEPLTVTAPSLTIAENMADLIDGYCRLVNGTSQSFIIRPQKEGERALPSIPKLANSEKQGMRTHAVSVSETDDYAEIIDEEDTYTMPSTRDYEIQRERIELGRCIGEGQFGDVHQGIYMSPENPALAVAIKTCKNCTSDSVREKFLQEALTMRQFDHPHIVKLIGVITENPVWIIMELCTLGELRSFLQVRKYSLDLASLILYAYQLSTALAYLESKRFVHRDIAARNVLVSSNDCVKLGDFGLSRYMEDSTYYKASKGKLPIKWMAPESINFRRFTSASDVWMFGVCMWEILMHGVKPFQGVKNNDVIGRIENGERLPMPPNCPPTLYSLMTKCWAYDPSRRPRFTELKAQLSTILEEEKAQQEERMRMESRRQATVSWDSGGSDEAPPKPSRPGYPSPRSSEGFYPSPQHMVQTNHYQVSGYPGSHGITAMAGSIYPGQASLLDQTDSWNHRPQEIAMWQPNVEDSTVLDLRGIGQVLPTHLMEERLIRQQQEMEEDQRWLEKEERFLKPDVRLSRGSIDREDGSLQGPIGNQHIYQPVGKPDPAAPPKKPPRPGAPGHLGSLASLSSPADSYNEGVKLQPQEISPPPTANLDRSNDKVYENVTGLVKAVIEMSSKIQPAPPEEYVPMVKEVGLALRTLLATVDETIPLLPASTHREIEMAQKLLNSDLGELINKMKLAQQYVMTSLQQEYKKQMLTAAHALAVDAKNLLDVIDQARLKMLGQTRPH
Sequence of Ephrin type-A receptor 7 (Homo sapiens) (Q15375 28-998 limits assumed): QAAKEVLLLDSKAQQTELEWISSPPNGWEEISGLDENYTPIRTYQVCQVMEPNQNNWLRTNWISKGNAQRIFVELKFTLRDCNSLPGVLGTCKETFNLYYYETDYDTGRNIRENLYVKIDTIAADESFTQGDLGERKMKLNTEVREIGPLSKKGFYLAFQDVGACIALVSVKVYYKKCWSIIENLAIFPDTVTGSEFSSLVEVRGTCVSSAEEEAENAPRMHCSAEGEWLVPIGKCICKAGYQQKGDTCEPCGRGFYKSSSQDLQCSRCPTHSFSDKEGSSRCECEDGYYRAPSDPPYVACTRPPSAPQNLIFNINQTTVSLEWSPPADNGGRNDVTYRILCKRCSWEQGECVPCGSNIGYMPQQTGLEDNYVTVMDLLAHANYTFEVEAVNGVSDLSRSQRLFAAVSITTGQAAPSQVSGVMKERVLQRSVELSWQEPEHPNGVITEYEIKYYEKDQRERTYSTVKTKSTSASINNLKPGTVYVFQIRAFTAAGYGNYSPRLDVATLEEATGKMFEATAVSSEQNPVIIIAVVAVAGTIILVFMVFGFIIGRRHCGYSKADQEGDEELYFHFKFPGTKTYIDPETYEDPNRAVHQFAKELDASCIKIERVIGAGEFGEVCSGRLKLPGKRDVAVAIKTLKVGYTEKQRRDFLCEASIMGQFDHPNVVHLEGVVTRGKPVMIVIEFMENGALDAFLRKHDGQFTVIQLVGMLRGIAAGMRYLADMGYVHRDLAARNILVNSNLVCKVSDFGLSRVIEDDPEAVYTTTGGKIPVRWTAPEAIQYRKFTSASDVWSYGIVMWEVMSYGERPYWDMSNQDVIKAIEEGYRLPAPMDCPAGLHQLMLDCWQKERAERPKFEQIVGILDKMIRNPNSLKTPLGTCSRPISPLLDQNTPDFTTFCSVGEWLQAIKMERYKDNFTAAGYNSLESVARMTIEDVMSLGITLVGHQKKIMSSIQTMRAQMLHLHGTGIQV
Sequence of Proto-oncogene tyrosine-protein kinase receptor Ret (Homo sapiens), P07949 [V804L] (P07949 whole entry V804L): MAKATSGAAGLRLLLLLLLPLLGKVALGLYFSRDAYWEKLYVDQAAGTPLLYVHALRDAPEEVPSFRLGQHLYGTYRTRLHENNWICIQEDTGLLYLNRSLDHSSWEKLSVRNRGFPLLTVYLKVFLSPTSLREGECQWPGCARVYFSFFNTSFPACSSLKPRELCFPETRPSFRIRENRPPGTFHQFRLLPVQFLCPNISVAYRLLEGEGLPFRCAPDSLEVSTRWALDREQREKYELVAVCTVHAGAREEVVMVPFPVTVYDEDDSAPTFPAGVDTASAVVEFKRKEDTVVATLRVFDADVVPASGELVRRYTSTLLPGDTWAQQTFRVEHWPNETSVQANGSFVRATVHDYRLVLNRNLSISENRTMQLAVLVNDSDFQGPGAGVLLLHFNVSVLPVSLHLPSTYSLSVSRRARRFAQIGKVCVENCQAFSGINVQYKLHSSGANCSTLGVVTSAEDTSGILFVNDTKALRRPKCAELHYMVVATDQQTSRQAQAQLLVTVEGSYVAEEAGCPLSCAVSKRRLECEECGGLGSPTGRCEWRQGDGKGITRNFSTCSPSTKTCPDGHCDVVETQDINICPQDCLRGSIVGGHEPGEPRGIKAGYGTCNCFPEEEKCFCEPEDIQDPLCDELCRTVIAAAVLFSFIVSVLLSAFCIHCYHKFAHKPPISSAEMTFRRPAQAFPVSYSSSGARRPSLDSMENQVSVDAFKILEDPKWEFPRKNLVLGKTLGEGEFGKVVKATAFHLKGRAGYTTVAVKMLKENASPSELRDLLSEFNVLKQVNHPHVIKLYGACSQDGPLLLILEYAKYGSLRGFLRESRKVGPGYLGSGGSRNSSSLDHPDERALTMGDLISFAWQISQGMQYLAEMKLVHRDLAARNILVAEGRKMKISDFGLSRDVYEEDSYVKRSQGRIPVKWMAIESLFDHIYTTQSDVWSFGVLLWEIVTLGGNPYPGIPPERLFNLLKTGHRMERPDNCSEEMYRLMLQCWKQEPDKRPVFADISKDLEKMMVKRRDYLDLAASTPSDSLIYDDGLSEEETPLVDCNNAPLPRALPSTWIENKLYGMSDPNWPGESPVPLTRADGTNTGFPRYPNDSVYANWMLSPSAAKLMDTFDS
Sequence of Cyclin-dependent kinase 3 (Homo sapiens) (Q00526 whole entry, looked up): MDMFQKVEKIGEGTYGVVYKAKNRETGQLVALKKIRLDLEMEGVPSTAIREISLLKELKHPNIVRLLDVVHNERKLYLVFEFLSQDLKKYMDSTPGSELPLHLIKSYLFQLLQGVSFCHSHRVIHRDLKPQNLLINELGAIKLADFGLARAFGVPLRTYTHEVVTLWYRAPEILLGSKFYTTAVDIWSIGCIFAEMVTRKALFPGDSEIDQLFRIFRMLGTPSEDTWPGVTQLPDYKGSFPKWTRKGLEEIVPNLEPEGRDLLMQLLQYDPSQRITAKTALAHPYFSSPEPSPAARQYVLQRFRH

## Cc1cc(C)c(-n2ccn3nc(-c4cccnc4)cc23)cc1NC(=O)c1cc(C#N)cc(S(F)(F)(F)(F)F)c1 [BAY-826]
[1]; [33]
  residual activity: 82.5%
[2]; [33]
  residual activity: 89.4%
[3]; [33]
  residual activity: 92%
[4]; [33]
  residual activity: 77.8%
[5]; [33]
  residual activity: 99.5%
[6]; [33]
  residual activity: 92%
[7]; [33]
  residual activity: 74.8%
[8]; [33]
  residual activity: 85.5%
[9]; [33]
  residual activity: 77.9%
[10]; [33]
  residual activity: 95.6%
[11]; [33]
  residual activity: 64.1%
[12]; [33]
  residual activity: 33.4%
[13]; [33]
  residual activity: 66.2%
[14]; [33]
  residual activity: 60.7%
[15]; [33]
  residual activity: 99.6%
[16]
  inhibition: 18.7%
[17]; [33]
  residual activity: 93.6%
[18]; [33]
  residual activity: 100%
[19]; [33]
  residual activity: 84.5%
[20]; [33]
  residual activity: 67.4%
[21]; [33]
  residual activity: 100%
[22]; [33]
  residual activity: 84.3%
Angiopoietin-1 receptor
  EC50: 1.7 nM (active)
  IC50: 0.7 nM (active)
[23]; [33]
  residual activity: 85.8%
[24]; [33]
  residual activity: 87.3%
[25]
  inhibition: 9.41%
[26]; [33]
  residual activity: 94.4%
Rattus norvegicus
  inhibition: 59.1%
[27]; [33]
  residual activity: 94.5%
[28]
  EC50: 0.54 nM (active)
  IC50: 3 nM (active)
[29]; [33]
  residual activity: 84.1%
[30]; [33]
  residual activity: 90.6%
[31]; [33]
  residual activity: 45.6%
[32]; [33]
  residual activity: 92.4%

## Cc1cc(NC(=O)c2cccc(S(F)(F)(F)(F)F)c2)cc(-n2ccn3nc(-c4cccnc4)cc23)c1 [BAY-309]
[1]; [34]
  residual activity: 67.7%
[2]; [34]
  residual activity: 82.9%
[3]; [34]
  residual activity: 91.2%
[4]; [34]
  residual activity: 72.5%
[5]; [34]
  residual activity: 100%
[6]; [34]
  residual activity: 100%
[7]; [34]
  residual activity: 100%
[8]; [34]
  residual activity: 100%
[9]; [34]
  residual activity: 100%
[10]; [34]
  residual activity: 90.7%
[11]; [34]
  residual activity: 96.9%
[12]; [34]
  residual activity: 88.9%
[13]; [34]
  residual activity: 87.6%
[14]; [34]
  residual activity: 100%
[15]; [34]
  residual activity: 100%
[16]
  inhibition: 58.5%
[17]; [34]
  residual activity: 100%
[18]; [34]
  residual activity: 96.4%
[19]; [34]
  residual activity: 88.6%
[20]; [34]
  residual activity: 100%
[21]; [34]
  residual activity: 92%
[22]; [34]
  residual activity: 81.7%
Angiopoietin-1 receptor
  EC50: 3300 nM (not active)
  IC50: 1100 nM (not active)
[23]; [34]
  residual activity: 100%
[24]; [34]
  residual activity: 100%
[25]
  inhibition: -7.94%
[26]; [34]
  residual activity: 68.1%
Rattus norvegicus
  inhibition: 67.8%
[27]; [34]
  residual activity: 82.8%
[28]
  EC50: 2700 nM (not active)
  IC50: 9300 nM (not active)
[29]; [34]
  residual activity: 100%
[30]; [34]
  residual activity: 74.8%
[31]; [34]
  residual activity: 73.5%
[32]; [34]
  residual activity: 100%

— ChEMBL document CHEMBL4507270 (2021)
